Source: US10710951B2, “Pharmaceutical composition containing verbenone derivative for treating or preventing neurodegenerative disease” (KOREA UNIVERSITY RESEARCH AND BUSINESS FOUNDATION, priority 2012, dated 2020)

Columns and labels:
[1] = test system: focal cerebral ischemia (MCAO) rats; assay: Focal cerebral ischemia model (MCAO); format: in vivo, SD rats; details: transient ischemia rat; 50 mg/kg intraperitoneal, twice (2 hours and 7 hours after brain infarction); FIG. 4
Description: Rats were anesthetized with 3.0% isoflurane in N2O and O2 (70:30 v/v) mixture via facemask and were maintained in 2% isoflurane. Throughout the experimental period, the body temperature was controlled and kept to 37° C.±0.3° C. using a rectal thermometer and a heating pad until the animals were sufficiently recovered from anesthesia after surgery. Focal cerebral ischemia was achieved by right-sided endovascular MCAO. Briefly, a 3-0 heat-blunted monofilament nylon suture (Ethicon Johnson & Johnson, Brussels, Belgium) were inserted into the lumen of the right external carotid artery stump and advanced 17.5 mm into the internal carotid artery to occlude the ostium of the MCA. The suture was removed after 1.5 hours to allow animals to recover. Operated controls were subjected to the same surgical procedures, except for MCAO. Physiological values were measured 15 minutes before MCAO and at 15 minutes after reperfusion, and mean blood pressure was monitored for 5 minutes using a blood pressure analyzer (MicroMed, Lousville, Ky.), and glucose were monitored using an analyzer (Ciba Corning Diagnostics Corp., Medfield, Mass.). […]
Rats were anesthetized with 3.5% chloral hydrate (5 ml/kg, intraperitoneal injection) and decapitated. […] The cross-sectional area of infarction between the bregma levels of +4 mm (anterior) and −6 mm (posterior) were determined with analysis software (OPTIMAS5.1 image analysis program, BioScanInc. Edmonds, Wash.). Brain infarct size was measured manually by outlining the margins of infarct areas. The total infarction volume (mm^3) was calculated according to the following equation 5 as disclosed in a document (J Neurosci Methods (1998) 84:9-16; J Cereb Blood Flow Metab (1990) 10:290-293), and compensated for brain edema. Cerebral edema was determined by the percent increase of the ipsilateral/contralateral hemisphere area as shown in the following equation 6. […]

cortical neurons = assay: NMDA-induced excitotoxicity, LDH release; format: cell-based, SD rats; parameters: dose or concentration left out as unconfirmed; details: cultured cortical neuronal cells; sample 30 min before NMDA; lower than MK-801; FIG. 2
Description: Cortical neurons (5×10^5 cells/ml) were isolated from fetal SD rats (16-17 days). Specifically, brain cortex was cut, and cells were isolated from the tissue by repeated trituration using a Pasteur pipette in buffer (Hanks' Balanced Salt Solution, HBSS). The cell suspension (1.8×10^3 cells/mm^2) was dispensed on a plate pretreated with poly-D-lysine ([…])/laminin ([…]). The cells were placed in 10% FBS-containing NBM medium, and incubated in a […]/5% CO2 atmosphere at 37° C. After 15-16 days of the incubation, the experiment was performed.
After incubation on the plate for 15-18 days, the cortical neurons were exposed to NMDA ([…]) in a solution (Mg^2+-free Earle's balanced salt solution (EBSS); containing 1.8 mM CaCl2 and 10 mM glycine) for 10 minutes. After exposure, the cells were washed with MgSO4-containing EBSS solution, and incubated in 25 mmol/L glucose-containing DMEM medium in a 5% CO2 incubator at 37° C. 30 Minutes before treatment with NMDA, the cells were treated with each sample […].
In order to measure cell injury or cell death, the amount of LDH released into the medium was measured using a cell viability measurement kit (Sigma-Aldrich, St. Louis, Mo.). Cell viability was expressed as the percentage of LDH relative to the total cellular LDH level measured in sister cultures lysed by freezing-thawing after the experiment.

[2] = DPPH assay (ability to scavenge nitrogen radicals); parameters: DPPH assay % inhibition: concentration or dose not given beside the values
Description: The samples were mixed with DPPH (23.6 μg/ml, in ethanol), and incubated in dark at 37° C. for 30 minutes. The DPPH absorbance reduced by each sample was measured at 517 nm. Vitamin C (Sigma-Aldrich, St. Louis, Mo.) was used as a control, and the DPPH inhibition value (%) was calculated using the following equation: Scavenging activity (%)=[Absmax(Vit.C)−Abssample]/[Absmax(Vit.C)−Absmin(Vit.C)]×100. Equation 1
The antioxidant activities of the verbenone derivatives of the present invention were measured by the following two different chemical reactions: (1) a single electron transfer-based assay that is a […] [DPPH] assay that measures a decrease in DPPH acting as a free radical generator and a termination probe; and (2) a hydrogen atom transfer assay that is an oxygen radical absorbance capacity [[…]] assay that measures the competitive reaction kinetics of a peroxyl radical generator (AAPH; 2,2′-azobis-(2-methylpropionamide)-dihydrochloride) and each sample acting as an antioxidant for oxidizable fluorescent probe (fluorescein).

## COc1cc(C=CC2=CC(=O)[C@H]3C[C@@H]2C3(C)C)cc(O)c1O [Compound 3f, (1S,5R)-4-(3,4-dihydroxy-5-methoxystyryl)-6,6-dimethylbicyclo[3.1.1]hept-3-en-2-one]
[1]
  cerebral edema: significantly reduced
  ischemic injury: significantly reduced
  neurological deficit: significantly reduced
Cortical neurons
  NMDA-induced neuronal injury: significantly reduced NMDA-induced neuronal injury
[2]; compared to vitamin C at the same concentration
  DPPH scavenging activity (in words): stronger scavenging activity compared to vitamin C
[2]; relative to vitamin C (Equation 1)
  DPPH assay % inhibition: 83.64 ± 6.19%
